Key:
FGFR1 = biological target: T1, FGFR1 (Homo sapiens, UniProt P11362); assay: Kinase binding assay (Kd), FGFR1; details: 11-point 3-fold dilution, qPCR readout
T1 construct: made in house; host or cells: E. coli host derived from BL21, infected with T7 phage
Summary of the method: (§1)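 Kinases expressed as T7 phage fusions are mixed with ligand-coated magnetic beads and compound (0.9% DMSO), then shaken 1 h at room temperature. After washing, bound kinase is eluted with free ligand for 30 min and measured by qPCR; Kd is obtained by Hill-equation fitting.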

FGFR2 = biological target: T2, FGFR2 (Homo sapiens, UniProt P21802); assay: Kinase binding assay (Kd), FGFR2; details: 11-point 3-fold dilution, qPCR readout
T2 construct: made in house; host or cells: E. coli host derived from BL21, infected with T7 phage
Summary of the method: as §1

FGFR3 = biological target: T3, FGFR3 (Homo sapiens, UniProt P22607); assay: Kinase binding assay (Kd), FGFR3; details: 11-point 3-fold dilution, qPCR readout
T3 construct: made in house; host or cells: E. coli host derived from BL21, infected with T7 phage
Summary of the method: as §1

FGFR3 (V555M) = biological target: T4, FGFR3 (V555M) (Homo sapiens, UniProt P22607, V555M); assay: Kinase binding assay (Kd), FGFR3 (V555M); details: 11-point 3-fold dilution, qPCR readout
T4 construct: made in house; host or cells: E. coli host derived from BL21, infected with T7 phage
Summary of the method: as §1

FGFR4 = biological target: T5, FGFR4 (Homo sapiens, UniProt P22455); assay: Kinase binding assay (Kd), FGFR4; details: 11-point 3-fold dilution, qPCR readout
T5 construct: made in house; host or cells: E. coli host derived from BL21, infected with T7 phage
Summary of the method: as §1

[1] = biological target: T6, FGFR3-BAIAP2L1 Ba/F3 cells (Homo sapiens, UniProt P22607); assay: Ba/F3 cell viability assay, FGFR3; type: cell-based; details: FGFR3-BAIAP2L1 fusion Ba/F3, 48 hours, Cell Titer-Glo 2.0; read-out: Ba/F3 Cells FGFR3 (IC50 nM)
T6 construct: Ba/F3 FGFR3; FGFR3--BAIAP2L1 fusion; Advanced Cellular Dynamics, (Seattle, WA); fused on or other part: Q9UHR4 (BAR/IMD domain-containing adapter protein 2-like 1)
Excerpt: (§2) Experimental Purpose: Recombinant kinase fusions are transduced into parental Ba/F3, which becomes dependent upon this constitutive kinase activity for IL3-independent survival. Inhibition of kinase activity leads to cell death, which is monitored using CellTiter-Glo® 2.0 (Promega) which measures intracellular ATP concentration that in turn serves as a marker for viability. FGFR1-BCR Ba/F3 and FGFR3-BAIAP2L1 Ba/F3 were obtained from Advanced Cellular Dynamics (Seattle, Wash.)
(§3) Cell Viability Assay Procedure: Cell Titer-Glo® 2.0 Luminescent cell viability assay reagent was purchased from Promega (Madison, Wis.). FGFR1-BCR Ba/F3 and FGFR3-BAIAP2L1 Ba/F3 cells were cultured in RPMI1640 media supplemented with 10% fetal bovine serum. Cultures were maintained at 37° C. in a humidified atmosphere of 5% CO2 and 95% air.
(§4) Cells were plated in 96-well clear bottom/white plates (Corning #3903) at 10,000 cells/well in 100 μl of media, incubated overnight. The next day, test compound DMSO stock solutions were made at 10 mM and 2 μM final concentration. Compounds were then added to cells in a 9-dose, 10-fold dilution series starting at 30 μM with an HP 300e Digital Dispenser (each dose was applied in triplicate). DMSO was backfilled to each well up to 301 nL total volume of test compound+DMSO, and a total of 301 nL DMSO was added to a control/no test compound well in triplicate. The cells in cell culture plates were incubated with the compounds at 37° C. and 5% CO2 for 48 hours. Then 50 μl of Cell Titer Glo 2.0 reagent was added to each well of the cell culture plates. The contents were covered from light and mixed on an orbital shaker at room temperature for 10 min. Luminescence was recorded by a Synergy H1 Microplate Reader (Biotek, Winooski, Vt.). Cells were assessed as a percentage of DMSO only treated control cells. Curves were plotted and IC50 values were calculated using the GraphPad Prism 8 program based on a sigmoidal dose-response equation (4 parameter).

FGFR1-BCR Ba/F3 cells = biological target: T7, FGFR1-BCR Ba/F3 cells (Homo sapiens, UniProt P11362); assay: Ba/F3 cell viability assay, FGFR1; type: cell-based; details: FGFR1-BCR Ba/F3, 48 hours, Cell Titer-Glo 2.0; read-out: Ba/F3 Cells FGFR1 (IC50 nM)
T7 construct: Ba/F3 FGFR1; FGFR1-BCR; Advanced Cellular Dynamics, (Seattle, WA); fused on or other part: P11274 (Breakpoint cluster region protein)
Excerpt: as §2, §3, §4

[2] = tested on: SNU-16 cells (Gastric Carcinoma, FGFR2 amplification); assay: Cancer cell line cell viability assay, SNU-16; type: cell-based; details: Homo sapiens, 72 hours, Cell Titer-Glo 2.0, read-out: Cancer Cell Viability Assays SNU-16 (IC50 nM)
Excerpt: (§5) [table] To detect the change of intracellular ATP by Cell Titer-Glo® and to evaluate the inhibitory effect of the compounds on cancer cell lines by determining the in vitro IC50 value of the compounds. Cell Titer-Glo® 2.0 Luminescent cell viability assay reagent was purchased from Promega (Madison, Wis.). RT112/84, SNU-16, and KG-1 cell lines were purchased from American Type Culture Collection (Manassas, Va.). UM-UC-14 cell line was purchased from Sigma (St. Louis, Mo.). RT112/84, UM-UC-14, SNU-16, and KG-1 cells were cultured in RPMI1640 media supplemented with 10% fetal bovine serum. Cultures were maintained at 37° C. in a humidified atmosphere of 5% CO2 and 95% air. Cell Viability Assay Procedure: Cells were plated in 96-well clear bottom/white plates (Corning #3903) at 10,000 cells/well in 100 μl of media, incubated overnight. The next day, test compound DMSO stock solutions were made at 10 mM and 2 μM final concentration. Compounds were then added to cells in a 9-dose, […] dilution series starting at 30 μM with an HP 300e Digital Dispenser (each dose was applied in triplicate). DMSO was backfilled to each well up to 301 nL total volume of test compound+DMSO, and a total of 301 nL DMSO was added to a control/no test compound well in triplicate. The cells in cell culture plates were incubated with the compounds at 37° C. and 5% CO2 for 72 hours. Then 50 μl of Cell Titer Glo 2.0 reagent was added to each well of the cell culture plates. The contents were covered from light and mixed on an orbital shaker at room temperature for 10 min. Luminescence was recorded by a Synergy H1 Microplate Reader (Biotek, Winooski, Vt.). Cells were assessed as a percentage of DMSO only treated control cells. Curves were plotted and IC50 values were calculated using the GraphPad Prism 8 program based on a sigmoidal dose-response equation (4 parameter).

[3] = tested on: RT112/84 cells (Bladder Cancer, FGFR3-TACC3 fusion); assay: Cancer cell line cell viability assay, RT112/84; type: cell-based; details: Homo sapiens, 72 hours, Cell Titer-Glo 2.0, read-out: Cancer Cell Viability Assays RT112/84 (IC50 nM)
Excerpt: as §5

T2 sequence (P21802 22-821): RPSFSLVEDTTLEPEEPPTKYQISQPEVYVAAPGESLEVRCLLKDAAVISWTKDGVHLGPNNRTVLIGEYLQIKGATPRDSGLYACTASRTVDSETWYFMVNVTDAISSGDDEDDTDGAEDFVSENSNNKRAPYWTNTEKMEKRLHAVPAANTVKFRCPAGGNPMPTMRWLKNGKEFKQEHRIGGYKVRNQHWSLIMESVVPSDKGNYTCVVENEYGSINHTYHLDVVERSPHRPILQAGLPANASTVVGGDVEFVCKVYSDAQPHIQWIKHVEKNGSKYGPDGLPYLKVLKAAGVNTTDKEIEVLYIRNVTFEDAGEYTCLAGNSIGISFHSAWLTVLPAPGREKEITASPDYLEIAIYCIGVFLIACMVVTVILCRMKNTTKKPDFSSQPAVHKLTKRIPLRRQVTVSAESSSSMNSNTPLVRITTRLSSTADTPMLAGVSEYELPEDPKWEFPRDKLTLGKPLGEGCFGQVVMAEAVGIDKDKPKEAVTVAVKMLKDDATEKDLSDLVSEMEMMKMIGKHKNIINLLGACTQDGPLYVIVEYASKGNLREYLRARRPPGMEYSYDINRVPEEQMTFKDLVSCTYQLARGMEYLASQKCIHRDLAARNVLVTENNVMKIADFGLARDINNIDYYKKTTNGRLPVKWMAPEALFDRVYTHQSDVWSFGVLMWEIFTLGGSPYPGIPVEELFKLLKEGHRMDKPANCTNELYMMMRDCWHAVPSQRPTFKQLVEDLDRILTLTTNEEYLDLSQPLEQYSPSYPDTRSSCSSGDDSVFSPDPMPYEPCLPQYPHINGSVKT
T1 sequence (P11362 22-822): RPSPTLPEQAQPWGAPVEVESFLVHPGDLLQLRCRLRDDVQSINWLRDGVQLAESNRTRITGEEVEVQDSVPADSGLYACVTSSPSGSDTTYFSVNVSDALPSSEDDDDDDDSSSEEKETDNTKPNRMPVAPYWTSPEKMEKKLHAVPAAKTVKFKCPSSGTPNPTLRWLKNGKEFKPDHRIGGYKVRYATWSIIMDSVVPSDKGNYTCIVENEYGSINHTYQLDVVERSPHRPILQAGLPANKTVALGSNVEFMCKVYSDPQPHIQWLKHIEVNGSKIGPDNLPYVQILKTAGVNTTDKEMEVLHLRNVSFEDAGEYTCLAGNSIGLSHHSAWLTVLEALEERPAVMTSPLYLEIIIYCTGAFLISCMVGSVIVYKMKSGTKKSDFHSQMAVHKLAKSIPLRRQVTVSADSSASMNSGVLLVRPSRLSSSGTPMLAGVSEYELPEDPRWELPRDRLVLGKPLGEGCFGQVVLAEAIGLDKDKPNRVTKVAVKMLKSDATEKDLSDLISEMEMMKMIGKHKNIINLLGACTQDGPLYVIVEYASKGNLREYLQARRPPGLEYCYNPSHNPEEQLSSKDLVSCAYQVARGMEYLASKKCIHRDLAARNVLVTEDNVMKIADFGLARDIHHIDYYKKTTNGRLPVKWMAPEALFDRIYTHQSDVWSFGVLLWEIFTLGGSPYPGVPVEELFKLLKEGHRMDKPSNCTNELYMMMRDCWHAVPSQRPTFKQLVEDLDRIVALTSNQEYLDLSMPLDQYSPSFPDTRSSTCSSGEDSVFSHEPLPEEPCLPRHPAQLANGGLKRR
T7 sequence (P11362 whole entry, change not shown, the tested form may be a part): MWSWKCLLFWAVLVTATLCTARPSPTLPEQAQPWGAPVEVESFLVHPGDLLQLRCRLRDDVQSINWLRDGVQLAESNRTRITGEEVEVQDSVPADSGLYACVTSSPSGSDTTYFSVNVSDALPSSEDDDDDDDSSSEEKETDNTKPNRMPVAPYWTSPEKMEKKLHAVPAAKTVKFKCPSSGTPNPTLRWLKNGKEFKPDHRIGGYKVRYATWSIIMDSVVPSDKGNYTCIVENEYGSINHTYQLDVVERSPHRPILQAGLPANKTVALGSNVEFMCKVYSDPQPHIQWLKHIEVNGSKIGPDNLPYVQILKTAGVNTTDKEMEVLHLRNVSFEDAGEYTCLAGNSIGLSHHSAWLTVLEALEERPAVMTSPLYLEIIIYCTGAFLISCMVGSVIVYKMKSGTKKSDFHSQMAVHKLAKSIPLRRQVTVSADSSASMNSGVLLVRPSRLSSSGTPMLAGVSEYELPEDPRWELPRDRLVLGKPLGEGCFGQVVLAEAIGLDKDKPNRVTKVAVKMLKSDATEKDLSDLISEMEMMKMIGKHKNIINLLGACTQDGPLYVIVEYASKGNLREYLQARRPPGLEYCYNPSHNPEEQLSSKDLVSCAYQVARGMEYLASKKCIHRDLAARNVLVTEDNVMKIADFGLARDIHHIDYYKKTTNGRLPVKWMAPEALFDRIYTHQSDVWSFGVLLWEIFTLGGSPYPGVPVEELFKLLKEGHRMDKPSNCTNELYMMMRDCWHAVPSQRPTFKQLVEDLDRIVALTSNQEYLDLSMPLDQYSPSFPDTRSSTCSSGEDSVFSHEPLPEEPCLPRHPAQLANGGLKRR
T3 sequence (P22607 23-806): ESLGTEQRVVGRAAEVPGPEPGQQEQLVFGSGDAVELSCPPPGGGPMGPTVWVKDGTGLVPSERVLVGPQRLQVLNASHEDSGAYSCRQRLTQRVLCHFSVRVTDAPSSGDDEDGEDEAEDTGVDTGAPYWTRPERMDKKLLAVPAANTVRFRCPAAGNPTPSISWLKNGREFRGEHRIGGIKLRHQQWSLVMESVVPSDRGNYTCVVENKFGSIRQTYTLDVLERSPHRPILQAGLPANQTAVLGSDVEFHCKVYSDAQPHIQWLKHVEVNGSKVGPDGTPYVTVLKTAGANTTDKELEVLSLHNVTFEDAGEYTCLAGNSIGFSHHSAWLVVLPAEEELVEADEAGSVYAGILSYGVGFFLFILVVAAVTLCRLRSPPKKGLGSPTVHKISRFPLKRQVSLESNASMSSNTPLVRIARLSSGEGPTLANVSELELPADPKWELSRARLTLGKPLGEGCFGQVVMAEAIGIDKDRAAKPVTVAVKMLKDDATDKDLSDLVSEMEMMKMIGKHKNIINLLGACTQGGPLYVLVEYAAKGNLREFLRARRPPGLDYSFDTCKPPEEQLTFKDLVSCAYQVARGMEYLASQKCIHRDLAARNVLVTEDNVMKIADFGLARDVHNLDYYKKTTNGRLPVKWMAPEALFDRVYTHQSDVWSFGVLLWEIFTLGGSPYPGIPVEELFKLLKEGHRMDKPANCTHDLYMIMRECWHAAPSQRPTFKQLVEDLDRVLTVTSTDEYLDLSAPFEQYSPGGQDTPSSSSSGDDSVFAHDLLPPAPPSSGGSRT
T6 sequence (P22607 whole entry, change not shown, the tested form may be a part): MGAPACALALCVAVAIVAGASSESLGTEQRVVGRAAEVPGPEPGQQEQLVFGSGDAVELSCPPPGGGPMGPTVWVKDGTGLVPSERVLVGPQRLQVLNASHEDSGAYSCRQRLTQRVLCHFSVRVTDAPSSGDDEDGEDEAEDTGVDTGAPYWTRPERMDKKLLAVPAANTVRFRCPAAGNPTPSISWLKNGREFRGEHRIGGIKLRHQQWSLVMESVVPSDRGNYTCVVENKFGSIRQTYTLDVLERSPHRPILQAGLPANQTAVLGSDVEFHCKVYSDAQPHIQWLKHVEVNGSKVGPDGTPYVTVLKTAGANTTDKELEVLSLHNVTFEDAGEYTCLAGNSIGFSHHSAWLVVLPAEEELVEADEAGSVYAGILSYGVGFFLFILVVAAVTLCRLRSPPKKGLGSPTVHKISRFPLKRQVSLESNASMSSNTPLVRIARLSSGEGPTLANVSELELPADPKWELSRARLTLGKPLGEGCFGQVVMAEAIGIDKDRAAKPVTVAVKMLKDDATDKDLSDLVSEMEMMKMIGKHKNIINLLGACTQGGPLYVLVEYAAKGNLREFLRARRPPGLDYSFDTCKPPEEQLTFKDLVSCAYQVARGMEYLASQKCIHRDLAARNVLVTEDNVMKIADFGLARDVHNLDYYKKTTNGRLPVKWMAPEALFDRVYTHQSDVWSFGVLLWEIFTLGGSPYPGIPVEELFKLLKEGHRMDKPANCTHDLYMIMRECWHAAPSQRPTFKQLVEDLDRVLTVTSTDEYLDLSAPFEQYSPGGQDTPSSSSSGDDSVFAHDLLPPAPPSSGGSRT
T5 sequence (P22455 22-802): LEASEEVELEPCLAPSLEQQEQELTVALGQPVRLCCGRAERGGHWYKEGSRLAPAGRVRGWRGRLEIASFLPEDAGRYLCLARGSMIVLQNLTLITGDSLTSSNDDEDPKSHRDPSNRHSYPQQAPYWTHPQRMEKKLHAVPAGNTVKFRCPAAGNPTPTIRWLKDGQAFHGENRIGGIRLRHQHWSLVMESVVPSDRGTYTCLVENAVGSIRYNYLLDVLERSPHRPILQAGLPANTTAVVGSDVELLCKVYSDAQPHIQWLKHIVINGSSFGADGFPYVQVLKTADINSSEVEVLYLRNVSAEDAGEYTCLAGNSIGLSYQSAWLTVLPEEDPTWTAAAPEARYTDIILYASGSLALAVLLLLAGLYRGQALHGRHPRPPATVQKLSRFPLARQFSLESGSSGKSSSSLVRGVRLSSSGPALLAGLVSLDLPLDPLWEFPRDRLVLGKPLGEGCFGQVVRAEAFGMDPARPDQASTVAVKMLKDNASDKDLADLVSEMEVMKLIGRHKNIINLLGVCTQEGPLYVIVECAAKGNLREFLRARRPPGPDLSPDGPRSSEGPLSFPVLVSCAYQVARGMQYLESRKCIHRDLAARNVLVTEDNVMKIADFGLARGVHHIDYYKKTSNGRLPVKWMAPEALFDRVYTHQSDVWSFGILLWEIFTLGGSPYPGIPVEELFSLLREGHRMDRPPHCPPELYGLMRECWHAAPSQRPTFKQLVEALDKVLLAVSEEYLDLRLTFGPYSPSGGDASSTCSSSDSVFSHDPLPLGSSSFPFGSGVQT
T4 sequence (P22607 23-806 V555M): as the sequence (P22607 23-806) above, with V533M counted along it

Kd (FGFR1) | Kd (FGFR2) | Kd (FGFR3) | Kd (FGFR3 (V555M)) | Kd (FGFR4) | IC50 [2] | IC50 [3] | SMILES | GI50 [1] | GI50 (FGFR1-BCR Ba/F3 cells)
350 nM | 3300 nM | 370 nM | 57 nM | 57 nM | 108 nM | 153 nM | Cc1cnc(Nc2ccc(N=S(C)(C)=O)cc2)nc1-c1c[nH]c2ccccc12 [Example 11, N-[4-[[dimethyl(oxo)-λ^6-sulfanylidene]amino]phenyl]-4-(1H-indol-3-yl)-5-methyl-pyrimidin-2-amine] | 15 nM | 115 nM
42 nM | 2 nM | 10 nM | 1 nM | 91 nM | 173 nM | 111 nM | COc1cc(Nc2ncc(C)c(-c3c[nH]c4ccccc34)n2)ccc1N=S(C)(C)=O [Example 26, N-[4-[[dimethyl(oxo)-λ^6-sulfanylidene]amino]-3-methoxy-phenyl]-4-(1H-indol-3-yl)-5-methyl-pyrimidin-2-amine] | 15 nM | 75 nM
2 nM | 1 nM | 2 nM |  | 110 nM | 16 nM | 43 nM | Cc1cnc(Nc2ccc(N=S(C)(C)=O)c(OCCN3CCOCC3)c2)nc1-c1c[nH]c2ccccc12 [Example 27, N-[4-[[dimethyl(oxo)-λ^6-sulfanylidene]amino]-3-(2-morpholinoethoxy)phenyl]-4-(1H-indol-3-yl)-5-methyl-pyrimidin-2-amine] |  | 11 nM
1 nM | 3 nM | 5 nM | 0.5 nM | 62 nM | 5 nM | 23 nM | COc1cc(Nc2ncc(C)c(-c3c[nH]c4c(C)cccc34)n2)ccc1N=S(C)(C)=O [Example 31, N-[4-[[dimethyl(oxo)-λ^6-sulfanylidene]amino]-3-methoxy-phenyl]-5-methyl-4-(7-methyl-1H-indol-3-yl)pyrimidin-2-amine] | 40 nM | 2 nM
64 nM | 34 nM | 49 nM | 3 nM | 740 nM | 857 nM | 377 nM | Cc1[nH]c2ccccc2c1-c1nc(Nc2ccc(S(C)(=N)=O)cc2)ncc1Cl (stereo not shown) [Example 56, 5-Chloro-4-(2-methyl-1H-indol-3-yl)-N-[4-(methylsulfonimidoyl)phenyl]-pyrimidin-2-amine] | 273 nM | 
50 nM | 43 nM | 53 nM | 6 nM | 680 nM | 803 nM | 610 nM | Cc1cnc(Nc2ccc(S(C)(=N)=O)cc2)nc1-c1c(C)[nH]c2ccccc12 (stereo not shown) [Example 57, 5-Methyl-4-(2-methyl-1H-indol-3-yl)-N-[4-(methylsulfonimidoyl)phenyl]-pyrimidin-2-amine] | 431 nM | 
330 nM | 89 nM | 180 nM | 16 nM | 2300 nM |  |  | C=CC(=O)Nc1cc2ccn(-c3nc(Nc4ccc(N=S(C)(C)=O)cc4)ncc3Cl)c2cc1C [Example 85, N-[1-[5-chloro-2-[4-[[dimethyl(oxo)-λ^6-sulfanylidene]amino]anilino]-pyrimidin-4-yl]-6-methyl-indol-5-yl]prop-2-enamide] | 459 nM | 171 nM
 |  |  |  |  |  |  | C=CC(=O)Nc1ccc2c(-c3nc(Nc4ccc(N=S(C)(C)=O)c(F)c4)ncc3Cl)cn(C)c2c1 [Example 93, N-[3-[5-Chloro-2-[4-[[dimethyl(oxo)-λ^6-sulfanylidene]amino]-3-fluoro-anilino]pyrimidin-4-yl]-1-methyl-indol-6-yl]prop-2-enamide] | 14 nM | 1 nM
 |  |  |  |  |  |  | C=CC(=O)Nc1ccc2c(-c3nc(Nc4ccc(N=S(C)(C)=O)nc4)ncc3Cl)cn(C)c2c1 [Example 94, N-[3-[5-Chloro-2-[[6-[[dimethyl(oxo)-λ^6-sulfanylidene]amino]-3-pyridyl]amino]pyrimidin-4-yl]-1-methyl-indol-6-yl]prop-2-enamide] | 23 nM | 4 nM

— patent publication US20230115945A1, “AMINOPYRIMIDINE COMPOUNDS” (TYRA BIOSCIENCES, INC., priority 2019, published 2023)
